Results from patent US20050288309A1, “Fungicidal mixtures” (priority 2002, published 2005).

Tested on: Plasmopara viticola
Assay: Activity against Peronospora of grapevines caused by Plasmopara viticola (protective spray test on potted vines)
Assay type: in vivo, cultivar Müller-Thurgau
Conditions: individual active compound, untreated control 70% infection
Protocol: The active compounds, separately or jointly, were prepared as a 10% emulsion in a mixture of 63% by weight of cyclohexanone and 27% by weight of emulsifier and diluted with water to the desired concentration.
Evaluation was carried out by determining the infected leaf areas in percent. These percentages were converted into efficacies. The efficacy (E) is calculated as follows using Abbot's formula: E=(1α/β)·100 • α corresponds to the fungicidal infection of the treated plants in % and • β corresponds to the fungicidal infection of the untreated (control) plants in %
An efficacy of 0 means that the infection level of the treated plants corresponds to that of the untreated control plants; an efficacy of 100 means that the treated plants were not infected.
The expected efficacies of the mixtures of active compounds are determined using Colby's formula [R. S. Colby, Weeds 15, 20-22 (1967)] and compared with the observed efficacies.
Colby's formula: E=x+y−x·y/100 • E expected efficacy, expressed in % of the untreated control, when using the mixture of the active compounds A and B at the concentrations a and b • x efficacy, expressed in % of the untreated control, when using active compound A at the concentration a • y efficacy, expressed in % of the untreated control, when using active compound B at the concentration b
Leaves of potted vines of the cultivar “Müller-Thurgau” were sprayed to runoff point with an aqueous suspension having the concentration of active compound stated below. The suspension or emulsion was prepared from a stock solution comprising 10% of active compound in a mixture consisting of 70% of cyclohexanone, 20% of wetting agent and 10% of emulsifier. The next day, the undersides of the leaves were inoculated with an aqueous zoospore suspension of Plasmopara viticola. The grapevines were then initially placed in a water-vapor-saturated chamber at 24° C. for 48 hours and then in a greenhouse at 20-30° C. for 5 days. After this period of time, the plants were again placed in a humid chamber for 16 hours to promote sporangiophore eruption. The extent of the development of the disease on the undersides of the leaves was then determined visually.

Compound | Efficacy in % of the untreated control (1 ppm in the spray liquor) [%] | Efficacy in % of the untreated control (0.25 ppm in the spray liquor) [%] | Efficacy in % of the untreated control (4 ppm in the spray liquor) [%]
COC(=O)N(OC)c1ccccc1COc1ccn(-c2ccc(Cl)cc2)n1 [II-6, pyraclostrobin, reference compound] | 29 |  | 
CC1CCN(c2c(-c3c(F)cc(F)cc3F)c(Cl)nc3ncnn23)CC1 [I, 5-chloro-7-(4-methylpiperidin-1-yl)-6-(2,4,6-trifluorophenyl)-[1,2,4]triazolo[1,5-a]-pyrimidine] | 0 | 0 | 29
